Data as given in US8916555B2, “3,5-diaminopyrazole kinase inhibitors” (Axikin Pharmaceuticals, Inc., priority 2012, dated 2014).

How the values were obtained:
[1] = molecular target: T1, kinase domain protein of RC kinase (Homo sapiens, UniProt Q56UN5); experiment: Enzymatic assay for kinase inhibitory activity (Crebtide substrate, LANCE readout), kinase domain protein; type: biochemical; conditions: test compound 1 μM, ATP 1 μM, Crebtide 50 nM
T1 sequence (Q56UN5 1061-1324 limits assumed): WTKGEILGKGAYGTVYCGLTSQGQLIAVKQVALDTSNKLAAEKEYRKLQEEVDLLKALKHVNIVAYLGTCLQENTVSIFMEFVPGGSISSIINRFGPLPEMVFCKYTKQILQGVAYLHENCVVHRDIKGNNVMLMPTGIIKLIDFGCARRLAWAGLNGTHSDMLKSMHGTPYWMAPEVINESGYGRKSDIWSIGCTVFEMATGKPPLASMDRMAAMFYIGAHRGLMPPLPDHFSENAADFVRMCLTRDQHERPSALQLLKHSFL
Outline: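 Kinase domain (1 mg/mL final) with 50 nM Crebtide and 1 μM ATP in MAPK buffer (50 mM HEPES, 10 mM MgCl2, 2 mM DTT, 0.01% Tween 20), 45 min RT. Compound at 1 μM or 1×IC50, duplicate. EDTA/anti-Crebtide stop, 45 min development, LANCE 665/615 nm; % inhibition at 1 μM binned A–D.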

inhibition at 1 µM [1] | melting point | Compound
≥ 50% | 176 to 180 °C | COc1ccc(Nc2n[nH]c(NCc3ccc(O)cc3)c2C(N)=O)cc1 [Compound D162, 5-((4-hydroxybenzyl)amino)-3-((4-methoxyphenyl)amino)-1H-pyrazole-4-carboxamide]
≥ 50% | 204 to 207 °C | NC(=O)c1c(Nc2ccc(F)cc2)n[nH]c1NCc1ccc(O)cc1 [Compound D163]
≥ 50% | 218 to 222 °C | CC(C)(C)c1ccc(Nc2n[nH]c(NCc3ccc(O)cc3)c2C(N)=O)cc1 [Compound D164, 3-((4-(tert-butyl)phenyl)amino)-5-((4-hydroxybenzyl)amino)-1H-pyrazole-4-carboxamide]
≥ 50% | 285 to 290 °C | NC(=O)c1c(Nc2ccc(C(=O)O)cc2)n[nH]c1NCc1ccc(O)cc1 [Compound D165, 4-((4-carbamoyl-5-((4-hydroxybenzyl)amino)-1H-pyrazol-3-yl)amino)benzoic acid]
